Experimental data taken from patent US20080280879A1, “SUBSTITUTED HETEROCYCLIC DERIVATIVES AND THEIR PHARMACEUTICAL USE AND COMPOSITIONS” (priority 2007, published 2008).
≈ marks a conversion by molar mass, not a printed value.

How the values were obtained:
Assay type in all cases: cell-based, Staphylococcus aureus
Staph aureus 1095 MRSA = test: MIC, microtiter broth dilution (CLSI M7-A7), Assay 1, Table 12 column A, no serum; conditions: Assay 1, no serum
Method in brief: (§1)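 Broth microdilution in microtiter trays per CLSI M7-A7, interpreted per M100-S16; MIC (μg/ml) is the lowest concentration preventing macroscopically visible growth. Compounds were dissolved in DMSO at 10 mg/ml. Serum-containing runs used Mueller-Hinton Broth with 50% pooled inactivated human serum; repeated runs are reported as geometric means.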

Staph aureus 1146 [1] = test: MIC, microtiter broth dilution (CLSI M7-A7), Assay 1, Table 12 column B, no serum; conditions: Staph aureus 1146, Assay 1, no serum
Method in brief: as §1

Staph aureus 1146 [2] = test: MIC in Mueller-Hinton Broth with 50% pooled inactivated human serum, Assay 1, Table 12; conditions: Staph aureus 1146, Assay 1, 50% human serum
Method in brief: as §1

Staph aureus 2811 = test: MIC, microtiter broth dilution (CLSI M7-A7), Assay 1, Table 12 column D, no serum; conditions: Staph aureus 2811, Assay 1, no serum
Method in brief: as §1

Staph aureus 2812 = test: MIC, microtiter broth dilution (CLSI M7-A7), Assay 1, Table 12 column E, no serum; conditions: Staph aureus 2812, Assay 1, no serum
Method in brief: as §1

Staph aureus 1031 [3] = test: MIC, microtiter broth dilution (CLSI M7-A7), Assay 2, Table 12 column F, no serum; conditions: Staph aureus 1031, Assay 2, no serum
Protocol: (§2) The assays described herein include a panel of bacterial isolates of Staphylococcus aureus. Assay 1 comprises the strains noted in Columns A through E, and Assay 2 comprises the strains noted in Columns F through H. The assays are performed in microtiter trays according to Methods for Dilution Antimicrobial Susceptibility Tests for Bacteria that Grow Aerobically; Approved Standard-7th edition (M7-A7) and interpreted according to the Performance Standards for Antimicrobial Susceptibility Testing; 16th Informational Supplement (M100-S16) published by Clinical Laboratory Standards Institute (CLSI). The antibacterial activity is presented in the form of a minimum inhibitory concentration (MIC) value in μg/ml format. The MIC value represents the lowest concentration of drug measured which prevented macroscopically visible growth under the conditions and specific doses tested. The compounds were initially dissolved in DMSO as 30 mM stocks and diluted accordingly to adjust to a concentration of 10 mg/ml or the compounds were dissolved in DMSO at a concentration of 10 mg/ml. For assessment of activity in the presence of human serum, S. aureus 1146 and S. aureus 1031 were inoculated into Mueller-Hinton Broth with 50% pooled inactivated human serum. In some cases, compounds were tested more than once in a particular assay. Where noted, the MIC value shown in Table 12 represents the geometric mean of the data from multiple runs.
(§3) It should be understood that the data in columns A-H represents MIC data in μg/ml and the notation “<=” means ‘less than or equal to’.

Staph aureus 1031 [4] = test: MIC in Mueller-Hinton Broth with 50% pooled inactivated human serum, Assay 2, Table 12 column G; conditions: Staph aureus 1031, Assay 2, 50% human serum
Protocol: as §2, §3

Staph aureus 2810 = test: MIC, microtiter broth dilution (CLSI M7-A7), Assay 2, Table 12 column H, no serum; conditions: Staph aureus 2810, Assay 2, no serum
Protocol: as §2, §3

COc1ccc2nccc(C(O)CC[C@@H]3CCN(C[C@@H]4C[C@H]4c4ccccc4)C[C@@H]3C(=O)O)c2c1 (stereo partly drawn) [Example 85, (3R,4R)-4-[3-hydroxy-3-(6-methoxyquinolin-4-yl)propyl]-1-{[(tans)-2-phenylcyclopropyl]methyl}piperidine-3-carboxylic acid]
MIC, column A (Staph aureus 1095 MRSA): 4 mg/L (≈ 8.43 µM)
MIC, column B (Staph aureus 1146 [1]): 1.4142 mg/L (≈ 2.98 µM)
MIC, column C (Staph aureus 1146 [2]): 5.6568 mg/L (≈ 11.9 µM)
MIC, column D (Staph aureus 2811): 1.4142 mg/L (≈ 2.98 µM)
MIC, column E (Staph aureus 2812): 2 mg/L (≈ 4.21 µM)
MIC, column F (Staph aureus 1031 [3]): 2 mg/L (≈ 4.21 µM)
MIC, column G (Staph aureus 1031 [4]): 4 mg/L (≈ 8.43 µM)
MIC, column H (Staph aureus 2810): 2 mg/L (≈ 4.21 µM)
